# Experimental data reported in patent publication US20090016990A1, “Antimicrobial Compositions” (priority 2007, published 2009).
# Legend:
# [1] = test system: P aeruginosa 10145; test: Synergy of Zosteric Acid (ZA) with HOCL, MIC in M9GY; format: cell-based
# [2] = test system: P aeruginosa 10145; test: Synergy of Zosteric Acid (ZA) with Kathon, MIC in M9GY; format: cell-based; conditions: ZA alone
# [3] = test system: Pseudomonas aeruginosa ATCC 27853; test: MBEC assay, biofilm inhibition (prevention of biofilm formation), MBEC bioFILM PA panel; format: cell-based
# [4] = test system: Pseudomonas aeruginosa ATCC 27853; test: MIC assay, planktonic growth, MBEC bioFILM PA panel
# Experimental: The MBEC bioFILM PA panel is designed for use in determining antimicrobial agent susceptibility of both planktonic and biofilm Pseudomonas aeruginosa.
# From this test, the minimum antibiotic concentration—in the presence and absence of a compound of the present invention—that will inhibit bacterial growth in solution (“MIC Assay”) is determined. The minimum antibiotic concentration—in the presence and absence of a compound of the present invention—that will prevent attachment of bacteria to a test surface (“MBEC Assay”) is determined. Approximately 1,000,000-10,000,000 bacteria attach in the absence of antibiotics; lesser numbers attach in the presence of antibiotics.
# MBEC bioFilm PA panel—Panel wells are inoculated with planktonic Pseudomonas aeruginosa using a 95 peg inoculation lid. Panels and pegged lids are then incubated at 35° C. for 18 h. Planktonic susceptibility and resistance is determined by measuring inhibition and growth in the presence of antimicrobial agents after incubation. Biofilm susceptibility and resistance is determined by measuring inhibition and growth after peg sonication, biofilm bacteria recovery, then incubation for additional 18-24 h at 35° C.
# [5] = HOCL with ZA (Qza) 250 ppm, M9GY
# [6] = HOCL with ZA (Qza) 500 ppm, M9GY
# [7] = HOCL with ZA (Qza) 1000 ppm, M9GY
# [8] = HOCL with ZA (Qza) 2500 ppm, M9GY
# [9] = HOCL with ZA (Qza) 5000 ppm, M9GY
# [10] = HOCL with ZA (Qza) 7500 ppm, M9GY
# [11] = HOCL with ZA (Qza) 10000 ppm, M9GY
# [12] = ZA alone, M9GY, highest value tested, used for SI calculations
compound,measurement,setting,value
OCl [HOCl],"MIC at 24 hours, Qhocl","[1]; HOCL alone, M9GY",40 ppm
same,"MIC at 48 hours, Qhocl","[1]; HOCL alone, M9GY",40 ppm
same,"MIC at 24 hours, Qhocl","[1]; HOCL with ZA (Qza) 0 ppm, M9GY",50 ppm
same,"MIC at 48 hours, Qhocl","[1]; HOCL with ZA (Qza) 0 ppm, M9GY",60 ppm
same,"SI-HOCL, 24 hours","[1]; HOCL with ZA (Qza) 0 ppm, M9GY",1.25
same,"SI-HOCL, 48 hours","[1]; HOCL with ZA (Qza) 0 ppm, M9GY",1.5
same,"MIC at 24 hours, Qhocl",[1]; [5],30 ppm
same,"MIC at 48 hours, Qhocl",[1]; [5],30 ppm
same,"SI-HOCL, 24 hours",[1]; [5],0.775
same,"SI-HOCL, 48 hours",[1]; [5],0.775
same,"MIC at 24 hours, Qhocl",[1]; [6],50 ppm
same,"MIC at 48 hours, Qhocl",[1]; [6],50 ppm
same,"SI-HOCL, 24 hours",[1]; [6],1.3
same,"SI-HOCL, 48 hours",[1]; [6],1.3
same,"MIC at 24 hours, Qhocl",[1]; [7],50 ppm
same,"MIC at 48 hours, Qhocl",[1]; [7],50 ppm
same,"SI-HOCL, 24 hours",[1]; [7],1.35
same,"SI-HOCL, 48 hours",[1]; [7],1.35
same,"MIC at 24 hours, Qhocl",[1]; [8],50 ppm
same,"MIC at 48 hours, Qhocl",[1]; [8],50 ppm
same,"SI-HOCL, 24 hours",[1]; [8],1.5
same,"SI-HOCL, 48 hours",[1]; [8],1.5
same,"MIC at 24 hours, Qhocl",[1]; [9],40 ppm
same,"MIC at 48 hours, Qhocl",[1]; [9],40 ppm
same,"SI-HOCL, 24 hours",[1]; [9],1.5
same,"SI-HOCL, 48 hours",[1]; [9],1.5
same,"MIC at 24 hours, Qhocl",[1]; [10],40 ppm
same,"MIC at 48 hours, Qhocl",[1]; [10],50 ppm
same,"SI-HOCL, 24 hours",[1]; [10],1.75
same,"SI-HOCL, 48 hours",[1]; [10],2
same,"MIC at 24 hours, Qhocl",[1]; [11],60 ppm
same,"MIC at 48 hours, Qhocl",[1]; [11],60 ppm
same,"SI-HOCL, 24 hours",[1]; [11],2.5
same,"SI-HOCL, 48 hours",[1]; [11],2.5
"O=C(O)/C=C/c1ccc(OS(=O)(=O)O)cc1 [ZA, Zosteric Acid]","QZA, MIC at 24 hours (ppm)",[2]; 24 hours,"10,000 ppm"
same,"QZA, MIC at 48 hours (ppm)",[2]; 48 hours,"10,000 ppm"
same,"MIC at 24 hours, QZA",[1]; [12],"10,000 ppm"
same,"MIC at 48 hours, QZA",[1]; [12],"10,000 ppm"
same,MIC for ZA,"[1]; table note, 10,000 ppm was the highest value tested","MIC for ZA is greater than 10,000 ppm, but since it was the highest value tested it was used for SI calculations."
CCC(C)(C)c1ccc(OS(=O)(=O)Cl)cc1 [compound 7],number of the 47 antibiotics or antibiotic combinations enhanced in activity,[3]; of 47,10
same,Bacterial attachment to the test surfaces in the presence of the compound,[3]; with antibiotics,completely inhibited at lower concentrations of antibiotics
same,MIC values for several antibiotics in the presence of the compound,[4]; compound at 0.01%,reduced
CC(C)(C)c1ccc(OS(=O)(=O)Cl)cc1 [compound 9],MIC values of antibiotics in the presence of the compound,[4]; antibiotics become less effective,increased
